For one data set, the system named is rat aorta. Description: Spasmolytic effect in isolated rat aorta. In kind it is cell-based, male SD rat. The settings on record: 20 mM KCl contraction, 37° C., maximal inhibition with papaverine hydrochloride 10^-4 M = 100, mean value±standard error, n = 3, read-out: -log IC50 (spasmolytic effect on rat aorta contracted with 20 mM KCl) (converted). The procedure:
(§1) 1. Spasmolytic effect in isolated rat aorta and dog coronary artery
The thoracic aorta of male SD rat was isolated and cut into 3 mm wide ring preparations. Each preparation was mounted in a 10 ml organ bath filled with Krebs-Henseleit solution by applying a resting tension of 1.0 g. The nutrient solution was maintained at 37° C. and aerated with a 95% O2 /5% CO2 gas. The isometric tension of the preparation was measured with a FD pickup and recorded on a recorder.
(§2) After about one hour of equilibration time, a compound of this invention was cumulatively administered to the preparation contracted with 20 mM KCl, and its spasmolytic effect was examined. The spasmolytic action of the compound of this invention was expressed as percentage of inhibition, taking the maximal inhibition obtained with papavarine hydrochloride (10^-4 M) as 100. The IC50 value (50% inhibition) for the compound of this invention was determined from the concentration-response curve fitted by non-linear regressions with a personal computer, and its potency expressed in terms of -log IC50 was shown as [mean value±standard error].

Another data set has as its system guinea-pig trachea. Description: Bronchodilator effect in isolated tracheal smooth muscle (guinea-pig trachea, leukotriene D4 contraction). In kind it is cell-based, Hartley male guinea-pigs. The procedure: 2. Bronchodilator effect in isolated tracheal smooth muscle
Hartley male guinea-pigs (NISSEIKEN) were stunned by a blow to the head and their tracheas were removed. Each trachea was carefully made into 20 small pieces so as not to injure them, and five pieces of them were linked together with a yarn to prepare tracheal strip chain. The preparation was suspended in 15 ml of an organ bath filled with a modified Krebs-Henseleitsolution containing indomethacin (b 5×10^-6 M) by applying a tension of 0.5 g. The solution was maintained at 35° C. and aerated with a 95% O2 /5% CO2 gas. After an equilibration time of one hour, the experiment was carried out. The results were isometrically recorded on a Multipen Recorder (R-64VL, mfd. by Rika Denki Kogyo) through a transducer (TD-112S, mfd. by Nihon Kohden) and an input box (JD-112S, mfd. by Nihon Kohden).
Each preparation was made to attain the maximal contraction with carbachol (3×10^-6 and 10^-5 M) and washed. When it reached an equilibrium, it was exposed to L-cysteine as an aminopeptidase inhibitor (3×10^-3 M). After thirty minutes, a contractive reaction was made to take place with leukotriene D4 (3×10^-9 M). When the contraction had reached a constant value, a test drug (10^-8 to 3×10^-5 M) was cumulatively applied into the bath at a dose ratio of 3. Finally, the maximal relaxation of each preparation was confirmed with papaverine.
The relaxations given by each test drug at various concentrations were converted to percentages of relaxation, taking the maximal relaxation obtained with papaverine as 100. The maximal relaxation (%) of each test drug and -log of ED30 (M) which is the dose of each test drug giving a percentage of relaxation of 30% as determined by a linear regression method from percentages of relaxation at two different doses are shown below.

Data set [1] is described as follows: Acute toxicity in mice (up and down method). As to conditions: mouse, in vivo, iv. As to the method: Acute toxicity of the test drug was evaluated in mice, following intravenous administration. The LD50 of the test drug was determined using up and down method.
The test system of the next data set is dog coronary artery. Description: Spasmolytic effect in isolated dog coronary artery. The data set is classed as cell-based, mongrel dogs. The settings on record: for spasmolytic effect on a contraction caused by 80 mM KCl (in words): potencies compared with 20 mM KCl; for IC50: Canis lupus familiaris, mean value±standard error. As to the method: as §1, §2
Ring preparations of coronary artery from mongrel dogs of either sex were prepared and isometric tension of the preparation was measured by the same method as above, except that the resting tension was adjusted to 1.5 g. For estimating the mechanism of action, the effect on the contraction caused by 80 mM KCl was also studied.

Where [2] appears, read: 20 mM KCl contraction, n = 3 (n = 4 for Compound No. 81), read-out: -log IC50 (spasmolytic effect on dog coronary artery, 20 mM KCl) (converted).
[3] abbreviates: 80 mM KCl contraction, n = 3, read-out: -log IC50 (spasmolytic effect on dog coronary artery, 80 mM KCl) (converted).

Read-outs that look alike come from different tables or passages of the source.

Consider `CC1(C)C=C(n2ccc(C(CCO[N+](=O)[O-])O[N+](=O)[O-])cc2=O)c2cc(C#N)ccc2O1` (centres unmarked) [Compound No. 91, 6-cyano-2,2-dimethyl-4-{1,2-dihydro-2-oxo-4-(1,3-dinitroxypropyl)-1-pyridinyl}-2H-benzo[b]pyran], for which, in the data set on rat aorta, the IC50 (usually the concentration that inhibits the measured activity by half) is 102 nM.
In the case of `CC1(C)C=C(n2ccc(CCCO)cc2=O)c2cc(C#N)ccc2O1` [Compound No. 192, 6-cyano-2,2-dimethyl-4-(1,2-dihydro-2-oxo-4-(3-hydroxypropyl)-1-pyridinyl}-2H-benzo[b]pyran], in the data set with rat aorta, the half-inhibitory concentration (IC50) was 1120 nM.
As for `CC1(C)C=C(n2ccc(CO[N+](=O)[O-])cc2=O)c2cc(C#N)ccc2O1` [Compound No. 69, 6-cyano-2,2-dimethyl-4-(1,2-dihydro-2-oxo-4-nitroxymethyl-1-pyridinyl)-2H-benzo[b]pyran], the EC30 with guinea-pig trachea (Cavia porcellus, leukotriene D4 (3×10^-9 M), dose giving 30% relaxation, papaverine maximal relaxation = 100, value is a negative log, read-out: Relaxing action on the contraction caused by leukotriene D4: -log[EX30 (M)] (converted)) was 2.24e-07 M. In addition, the Emax in the data set with guinea-pig trachea (Cavia porcellus, leukotriene D4 (3×10^-9 M), test drug 10^-8 to 3×10^-5 M cumulatively, papaverine maximal relaxation = 100, read-out: Relaxing action on the contraction caused by leukotriene D4: Maximal relaxation %) came to 93.9%. For the same compound, in the data set with guinea-pig trachea (leukotriene D4), the “relaxant effect on isolated guinea pig tracheal smooth muscle contracted by leukotriene D4 / bronchodilator activity (in words)” value was “strong relaxant effect”. Further, the median lethal dose (LD50) (commonly the dose at which mortality reaches 50%) in data set [1] stood at 81.2 mg/kg. Further, the IC50 with rat aorta was 3.31 nM; in the data set on dog coronary artery (setting [2]), 8.71 nM; in the data set on dog coronary artery (setting [3]), 12600 nM. Moreover, the “spasmolytic effect on a contraction caused by 80 mM KCl (in words)” value (“spasmolytic effect” below) in the data set with dog coronary artery is “also exhibited a spasmolytic effect on a contraction caused by 80 mM KCl, though their potencies are lower than those against the contraction caused by 20 mM KCl”.
Regarding `CC(O[N+](=O)[O-])c1ccn(C2=CC(C)(C)Oc3ccc(C#N)cc32)c(=O)c1` (centres unmarked) [Compound No. 72, 6-cyano-2,2-dimethyl-4-{1,2-dihydro-2-oxo-4-(1-nitroxyethyl)-1-pyridinyl}-2H-benzo[b]pyran], in the data set with rat aorta, the IC50 was 67.6 nM.
For `CC1(C)C=C(n2cc(CO)ccc2=O)c2cc(C#N)ccc2O1` [Compound No. 162, 6-cyano-2,2-dimethyl-4-(1,2-dihydro-2-oxo-5-hydroxymethyl-1-pyridinyl)-2H-benzo[b]pyran], the IC50 in the data set on rat aorta was 138 nM.
On the same count and under the same terms, under `CC1(C)C=C(n2ccc(C=O)cc2=O)c2cc(C#N)ccc2O1` [Compound No. 191, 6-cyano-2,2-dimethyl-4-(1,2-dihydro-2-oxo-4-formyl-1-pyridinyl)-2H-benzo[b]pyran] stands 447 nM; under `CC1(C)C=C(n2ccc(CO[N+](=O)[O-])cc2=O)c2cc(C(F)(F)F)ccc2O1` [Compound No. 105, 6-trifluoromethyl-2,2-dimethyl-4-(1,2-dihydro-2-oxo-4-nitroxymethyl-1-pyridinyl)-2H-benzo[b]pyran], 5.89 nM; under `CC1(C)C=C(n2ccc(CCCCO)cc2=O)c2cc(C#N)ccc2O1` [Compound No. 193, 6-cyano-2,2-dimethyl-4-{1,2-dihydro-2-oxo-4-(4-hydroxybutyl)-1-pyridinyl}-2H-benzo[b]pyran], 1350 nM.
Still for that read-out and setting: under `CC1(C)C=C(n2cccc(CO)c2=O)c2cc(C#N)ccc2O1` [Compound No. 160, 6-cyano-2,2-dimethyl-4-(1,2-dihydro-2-oxo-3-hydroxymethyl-1-pyridinyl)-2H-benzo[b]pyran] stands 813 nM.
Turning to `CC1(C)C=C(n2ccc(CCCCO[N+](=O)[O-])cc2=O)c2cc(C#N)ccc2O1` [Compound No. 81, 6-cyano-2,2-dimethyl-4-{1,2-dihydro-2-oxo-4-(4-nitroxybutyl)-1-pyridinyl}-2H-benzo[b]pyran], the IC50 was 39.8 nM in the data set on rat aorta, 0.0316 nM in the data set with dog coronary artery (setting [2]) and 229 nM with dog coronary artery (setting [3]). For the same compound, in the data set with dog coronary artery, the “spasmolytic effect” value is listed as “also exhibited a spasmolytic effect on a contraction caused by 80 mM KCl, though their potencies are lower than those against the contraction caused by 20 mM KCl”.
Turning to `CC1(C)Oc2ccc(C#N)cc2[C@@H](n2ccc(CO[N+](=O)[O-])cc2=O)[C@@H]1O` (relative stereo) [Compound No. 2, trans-3-hydroxy-6-cyano-3,4-dihydro-2,2-dimethyl-4-(1,2-dihydro-2-oxo-4-nitroxymethyl-1-pyridinyl)-2H-benzo[b]pyran], the 50% inhibitory concentration (IC50) with rat aorta is 51.3 nM.
On the same count and under the same terms, the figure for `CC(=O)O[C@H]1[C@H](n2ccc(CO[N+](=O)[O-])cc2=O)c2cc(C#N)ccc2OC1(C)C` (relative stereo) [Compound No. 44, trans-3-acetoxy-6-cyano-3,4-dihydro-2,2-dimethyl-4-(1,2-dihydro-2-oxo-4-nitroxymethyl-1-pyridinyl)-2H-benzo[b]pyran] is 6610 nM.
For the compound `CC1(C)C=C(n2ccc(CCCO[N+](=O)[O-])cc2=O)c2cc(C#N)ccc2O1` [Compound No. 77, 6-cyano-2,2-dimethyl-4-{1,2-dihydro-2-oxo-4-(3-nitroxypropyl)-1-pyridinyl}-2H-benzo[b]pyran], the IC50 is 12.6 nM with rat aorta, 2.14 nM with dog coronary artery (setting [2]) and 380 nM in the data set with dog coronary artery (setting [3]). In the data set with dog coronary artery, the “spasmolytic effect” value was “also exhibited a spasmolytic effect on a contraction caused by 80 mM KCl, though their potencies are lower than those against the contraction caused by 20 mM KCl”.
For the compound `CC1(C)C=C(n2ccc(CO)cc2=O)c2cc(C#N)ccc2O1` [Compound No. 161, 6-cyano-2,2-dimethyl-4-(1,2-dihydro-2-oxo-4-hydroxymethyl-1-pyridinyl)-2H-benzo[b]pyran], the IC50 with rat aorta is 525 nM.
For `CC1(C)C=C(n2cc(CO[N+](=O)[O-])ccc2=O)c2cc(C#N)ccc2O1` [Compound No. 70, 6-cyano-2,2-dimethyl-4-(1,2-dihydro-2-oxo-5-nitroxymethyl-1-pyridinyl)-2H-benzo[b]pyran], in the data set on rat aorta, the IC50 is 135 nM.
Same read-out and setting: under `C=Cc1ccn(C2=CC(C)(C)Oc3ccc(C#N)cc32)c(=O)c1` [Compound No. 190, 6-cyano-2,2-dimethyl-4-(1,2-dihydro-2-oxo-4-vinyl-1-pyridinyl)-2H-benzo[b]pyran] stands 60.3 nM.

The record behind these values is US5296492A, “Certain chroman derivatives useful for treating symptoms caused by contraction of smooth muscles, circulatory diseases or epilepsy” (Nippon Kayaku Kabushiki Kaisha, priority 1991, dated 1994).
